Article PMC7486443, “Generation of Phenothiazine with Potent Anti-TLK1 Activity for Prostate Cancer Therapy” (iScience, 2020)

Experiments:
Test in all cases: biochemical
Set-up in all cases: DiscoverX KINOMEscan scanMAX competition binding panel, single concentration, percent of control; remaining binding: dose or concentration left out as unconfirmed
Conditions in all cases: KINOMEscan binding, percent of control; read-out: Table S4_SCANMAX REPORT - related to Fig. 1 / Percent Control
[1] = target: DYRK1A (Homo sapiens, UniProt Q13627)
[2] = target: MAPKAPK2 (Homo sapiens, UniProt P49137)
[3] = target: EPHA7 (Homo sapiens, UniProt Q15375)
[4] = target: PRKD3 (Homo sapiens, UniProt O94806)
[5] = target: PKMYT1 (Homo sapiens, UniProt Q99640)
[6] = target: CAMK2D (Homo sapiens, UniProt Q13557)
[7] = target: ERBB3 (Homo sapiens, UniProt P21860)
[8] = target: T1, MLK1 (Homo sapiens, UniProt P80192)
T1 construct: gene MAP3K9

[9] = target: T2, SGK (Homo sapiens, UniProt O00141)
T2 construct: gene SGK1

[10] = target: MAP3K2 (Homo sapiens, UniProt Q9Y2U5)
[11] = target: EPHB2 (Homo sapiens, UniProt P29323)
[12] = target: SRMS (Homo sapiens, UniProt Q9H3Y6)
[13] = target: FLT3-autoinhibited (Homo sapiens, UniProt P36888)
[14] = target: ALK(C1156Y) (Homo sapiens, UniProt Q9UM73, C1156Y)
[15] = target: T3, MLCK (Homo sapiens, UniProt Q32MK0)
T3 construct: gene MYLK3

[16] = target: T4, ADCK4 (Homo sapiens, UniProt Q96D53)
T4 construct: gene COQ8B

[17] = target: T5, JNK1 (Homo sapiens, UniProt P45983)
T5 construct: gene MAPK8

[18] = target: PRKCD (Homo sapiens, UniProt Q05655)

Chain of PKMYT1 (Q99640 whole entry): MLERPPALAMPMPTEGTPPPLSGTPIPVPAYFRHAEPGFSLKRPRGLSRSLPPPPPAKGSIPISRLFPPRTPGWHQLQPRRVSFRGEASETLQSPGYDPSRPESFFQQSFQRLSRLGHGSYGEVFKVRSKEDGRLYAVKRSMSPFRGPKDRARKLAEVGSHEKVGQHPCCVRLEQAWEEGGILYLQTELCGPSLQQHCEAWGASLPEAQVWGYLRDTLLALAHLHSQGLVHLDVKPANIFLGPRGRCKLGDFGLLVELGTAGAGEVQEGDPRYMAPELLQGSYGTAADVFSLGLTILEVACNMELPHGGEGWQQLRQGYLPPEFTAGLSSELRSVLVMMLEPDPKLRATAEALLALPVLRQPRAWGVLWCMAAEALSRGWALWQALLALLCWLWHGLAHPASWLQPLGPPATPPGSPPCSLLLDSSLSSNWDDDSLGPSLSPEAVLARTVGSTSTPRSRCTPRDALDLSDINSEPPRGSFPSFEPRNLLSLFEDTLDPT
Chain of ERBB3 (P21860 whole entry): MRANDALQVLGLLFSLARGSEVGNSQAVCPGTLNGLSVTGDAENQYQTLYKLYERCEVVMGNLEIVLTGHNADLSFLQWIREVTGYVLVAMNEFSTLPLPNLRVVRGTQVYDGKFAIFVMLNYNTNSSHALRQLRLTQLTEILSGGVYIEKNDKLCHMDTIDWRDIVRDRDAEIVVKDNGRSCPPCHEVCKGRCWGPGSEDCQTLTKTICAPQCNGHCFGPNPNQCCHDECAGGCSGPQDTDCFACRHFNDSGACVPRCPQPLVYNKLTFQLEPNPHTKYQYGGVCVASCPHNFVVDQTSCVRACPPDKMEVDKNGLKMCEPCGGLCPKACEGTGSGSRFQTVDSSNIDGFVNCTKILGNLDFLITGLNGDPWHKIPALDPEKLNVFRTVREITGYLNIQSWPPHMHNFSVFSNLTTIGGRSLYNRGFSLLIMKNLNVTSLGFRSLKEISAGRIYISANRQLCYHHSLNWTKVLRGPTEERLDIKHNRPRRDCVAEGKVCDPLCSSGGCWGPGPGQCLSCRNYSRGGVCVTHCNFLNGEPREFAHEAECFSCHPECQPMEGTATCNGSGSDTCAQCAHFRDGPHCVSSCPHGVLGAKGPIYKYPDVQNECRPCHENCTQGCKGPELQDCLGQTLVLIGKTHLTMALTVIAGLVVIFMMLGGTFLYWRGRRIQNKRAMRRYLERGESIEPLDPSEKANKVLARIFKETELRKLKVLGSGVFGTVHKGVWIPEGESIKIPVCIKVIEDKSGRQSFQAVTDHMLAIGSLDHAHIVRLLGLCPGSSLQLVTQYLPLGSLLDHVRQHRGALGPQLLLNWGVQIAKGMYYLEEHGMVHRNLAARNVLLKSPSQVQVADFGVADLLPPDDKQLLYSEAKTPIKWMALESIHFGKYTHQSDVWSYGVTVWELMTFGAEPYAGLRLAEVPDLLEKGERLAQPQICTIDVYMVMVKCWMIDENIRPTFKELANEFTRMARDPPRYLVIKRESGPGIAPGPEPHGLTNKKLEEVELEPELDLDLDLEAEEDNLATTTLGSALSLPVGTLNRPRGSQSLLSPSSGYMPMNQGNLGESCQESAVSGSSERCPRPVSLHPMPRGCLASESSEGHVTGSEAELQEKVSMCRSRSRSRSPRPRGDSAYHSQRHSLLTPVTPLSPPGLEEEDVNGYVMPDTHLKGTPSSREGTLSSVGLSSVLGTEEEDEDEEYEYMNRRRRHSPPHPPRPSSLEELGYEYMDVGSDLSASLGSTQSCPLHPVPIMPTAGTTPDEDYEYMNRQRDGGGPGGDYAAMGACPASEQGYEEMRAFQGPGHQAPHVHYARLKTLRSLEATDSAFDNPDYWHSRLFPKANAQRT
Chain of SRMS (Q9H3Y6 whole entry): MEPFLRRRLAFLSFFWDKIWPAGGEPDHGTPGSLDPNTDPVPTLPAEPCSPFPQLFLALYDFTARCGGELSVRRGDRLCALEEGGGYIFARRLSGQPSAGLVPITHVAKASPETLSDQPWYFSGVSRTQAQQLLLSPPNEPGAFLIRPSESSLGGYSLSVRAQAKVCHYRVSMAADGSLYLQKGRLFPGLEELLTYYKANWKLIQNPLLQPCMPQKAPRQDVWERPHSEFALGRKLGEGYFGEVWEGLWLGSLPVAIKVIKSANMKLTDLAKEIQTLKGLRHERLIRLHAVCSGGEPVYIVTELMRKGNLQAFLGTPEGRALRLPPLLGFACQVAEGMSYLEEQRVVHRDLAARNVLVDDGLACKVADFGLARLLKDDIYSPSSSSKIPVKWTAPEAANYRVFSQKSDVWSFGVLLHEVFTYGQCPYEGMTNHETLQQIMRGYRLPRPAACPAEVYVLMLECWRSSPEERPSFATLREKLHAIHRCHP
Chain of CAMK2D (Q13557 whole entry): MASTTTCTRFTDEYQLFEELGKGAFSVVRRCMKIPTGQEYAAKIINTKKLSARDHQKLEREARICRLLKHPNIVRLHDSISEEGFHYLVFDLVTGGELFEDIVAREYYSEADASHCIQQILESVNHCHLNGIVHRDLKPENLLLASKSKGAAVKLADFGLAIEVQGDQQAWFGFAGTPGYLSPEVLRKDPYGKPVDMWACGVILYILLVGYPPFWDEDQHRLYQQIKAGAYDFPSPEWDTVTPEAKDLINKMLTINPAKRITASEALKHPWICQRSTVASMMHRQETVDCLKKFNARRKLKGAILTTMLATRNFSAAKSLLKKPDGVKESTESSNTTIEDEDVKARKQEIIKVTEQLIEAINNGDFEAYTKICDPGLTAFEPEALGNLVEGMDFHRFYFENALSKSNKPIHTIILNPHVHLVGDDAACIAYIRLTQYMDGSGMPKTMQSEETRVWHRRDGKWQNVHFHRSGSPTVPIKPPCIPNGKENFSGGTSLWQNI
Chain of EPHA7 (Q15375 whole entry): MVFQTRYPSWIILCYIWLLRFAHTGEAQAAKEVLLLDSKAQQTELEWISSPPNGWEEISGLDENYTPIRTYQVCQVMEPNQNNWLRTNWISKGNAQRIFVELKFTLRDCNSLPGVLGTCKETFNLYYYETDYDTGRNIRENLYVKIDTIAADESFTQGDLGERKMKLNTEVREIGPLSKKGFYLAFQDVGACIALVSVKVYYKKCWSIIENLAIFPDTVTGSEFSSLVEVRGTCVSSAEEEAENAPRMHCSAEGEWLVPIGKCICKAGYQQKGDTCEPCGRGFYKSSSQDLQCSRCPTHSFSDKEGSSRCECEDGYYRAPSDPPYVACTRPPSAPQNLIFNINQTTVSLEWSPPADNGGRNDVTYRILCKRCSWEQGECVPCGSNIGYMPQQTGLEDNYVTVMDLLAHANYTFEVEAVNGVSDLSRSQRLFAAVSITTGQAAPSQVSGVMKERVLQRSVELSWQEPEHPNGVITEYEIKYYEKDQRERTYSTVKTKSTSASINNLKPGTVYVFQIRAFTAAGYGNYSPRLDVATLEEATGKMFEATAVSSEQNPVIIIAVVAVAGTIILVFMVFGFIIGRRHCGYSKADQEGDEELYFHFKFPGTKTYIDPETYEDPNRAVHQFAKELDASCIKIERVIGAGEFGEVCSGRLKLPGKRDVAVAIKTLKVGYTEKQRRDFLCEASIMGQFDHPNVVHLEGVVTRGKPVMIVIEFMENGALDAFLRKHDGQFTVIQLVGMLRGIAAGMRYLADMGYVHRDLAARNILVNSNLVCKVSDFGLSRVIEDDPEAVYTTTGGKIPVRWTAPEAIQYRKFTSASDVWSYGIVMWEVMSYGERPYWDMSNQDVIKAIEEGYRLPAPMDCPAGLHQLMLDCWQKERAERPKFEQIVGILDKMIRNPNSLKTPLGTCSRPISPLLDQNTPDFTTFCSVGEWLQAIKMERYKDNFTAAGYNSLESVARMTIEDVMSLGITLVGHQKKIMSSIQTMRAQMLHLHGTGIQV
T4 sequence (Q96D53 whole entry): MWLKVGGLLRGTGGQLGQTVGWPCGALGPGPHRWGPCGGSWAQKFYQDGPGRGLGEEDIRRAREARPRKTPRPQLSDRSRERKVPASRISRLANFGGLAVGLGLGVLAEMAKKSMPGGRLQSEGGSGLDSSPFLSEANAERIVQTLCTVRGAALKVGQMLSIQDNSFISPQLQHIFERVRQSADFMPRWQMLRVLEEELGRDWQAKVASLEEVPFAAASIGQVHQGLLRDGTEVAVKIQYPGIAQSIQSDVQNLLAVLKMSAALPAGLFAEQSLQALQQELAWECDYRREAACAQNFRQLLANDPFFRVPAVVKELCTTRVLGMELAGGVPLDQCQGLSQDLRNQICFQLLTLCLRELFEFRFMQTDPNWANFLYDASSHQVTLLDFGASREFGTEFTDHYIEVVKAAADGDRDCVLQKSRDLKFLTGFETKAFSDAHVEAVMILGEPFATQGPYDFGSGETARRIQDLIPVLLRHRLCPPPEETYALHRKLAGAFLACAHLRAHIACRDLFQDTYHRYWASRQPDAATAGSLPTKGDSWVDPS
T5 sequence (P45983 whole entry): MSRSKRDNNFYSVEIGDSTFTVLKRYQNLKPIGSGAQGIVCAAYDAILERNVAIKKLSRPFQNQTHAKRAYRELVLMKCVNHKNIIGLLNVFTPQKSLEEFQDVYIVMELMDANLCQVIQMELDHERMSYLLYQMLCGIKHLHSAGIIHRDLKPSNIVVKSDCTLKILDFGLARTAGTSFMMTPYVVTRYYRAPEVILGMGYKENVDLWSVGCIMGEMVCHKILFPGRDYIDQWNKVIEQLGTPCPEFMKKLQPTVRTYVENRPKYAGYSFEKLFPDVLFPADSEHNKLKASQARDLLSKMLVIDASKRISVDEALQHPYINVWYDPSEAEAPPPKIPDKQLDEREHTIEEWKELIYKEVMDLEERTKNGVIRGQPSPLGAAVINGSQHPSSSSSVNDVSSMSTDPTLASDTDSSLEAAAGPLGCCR

Q: With `c1ccc2c(c1)Sc1ccccc1N2CCN1CCOCC1` [J54] as the compound, how does the remaining binding [1] read?
A: 80%

Q: What about the remaining binding [2] of the same compound?
A: 100%

Q: What about the remaining binding [3] of the same compound?
A: 100%

Q: What about the remaining binding [4] of the same compound?
A: 100%

Q: What about the remaining binding [5] of the same compound?
A: 100%

Q: What about the remaining binding [6] of the same compound?
A: 100%

Q: And the remaining binding [7]?
A: 78%

Q: And the remaining binding [8]?
A: 97%

Q: What about the remaining binding [9] of the same compound?
A: 93%

Q: And the remaining binding [10]?
A: 100%

Q: And the remaining binding [11]?
A: 100%

Q: And the remaining binding [12]?
A: 100%

Q: What about the remaining binding [13] of the same compound?
A: 100%

Q: What about the remaining binding [14] of the same compound?
A: 100%

Q: And the remaining binding [15]?
A: 79%

Q: And the remaining binding [16]?
A: 75%

Q: What about the remaining binding [17] of the same compound?
A: 82%

Q: And the remaining binding [18]?
A: 100%
